We go through 1 molecule from article PMC8744338, “Luteolin increases susceptibility to macrolides by inhibiting MsrA efflux pump in Trueperella pyogenes” (Veterinary Research, 2022).

Usually Kd stands for the concentration at which binding is half-saturated. A higher Kd goes with lower affinity.

The target of this experiment is T1, MsrA efflux pump (His-MsrA) (Staphylococcus epidermidis, UniProt P23212).
T1 construct: macrolide ABC-F MsrA of staphylococcal type, not methionine sulfoxide reductase
T1 sequence (P23212 whole entry): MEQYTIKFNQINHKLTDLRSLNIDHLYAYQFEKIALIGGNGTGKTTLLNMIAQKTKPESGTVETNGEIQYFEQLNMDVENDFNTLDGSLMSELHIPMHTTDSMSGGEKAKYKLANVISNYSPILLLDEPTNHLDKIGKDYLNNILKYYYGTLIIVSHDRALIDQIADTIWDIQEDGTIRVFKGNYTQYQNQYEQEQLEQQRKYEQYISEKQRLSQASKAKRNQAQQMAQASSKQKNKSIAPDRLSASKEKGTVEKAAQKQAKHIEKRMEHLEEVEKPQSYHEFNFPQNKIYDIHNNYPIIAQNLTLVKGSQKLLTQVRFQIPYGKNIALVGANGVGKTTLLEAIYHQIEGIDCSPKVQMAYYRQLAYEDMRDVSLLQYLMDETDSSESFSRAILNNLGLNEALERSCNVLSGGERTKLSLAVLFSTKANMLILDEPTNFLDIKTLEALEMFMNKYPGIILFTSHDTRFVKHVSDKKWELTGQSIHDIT
As to the kind of experiment: surface plasmon resonance (Biacore T200, His-MsrA captured on NTA chip). Type of experiment: binding. To be noted: PBS-P running buffer; luteolin 12.5-400 μM. A general note: SPR reads the build-up and loss of mass on a sensor chip optically.

Consider `O=c1cc(-c2ccc(O)c(O)c2)oc2cc(O)cc(O)c12` [luteolin], for which the affinity, expressed as Kd, was 64.6 µM.
